# Measurements: patent US10538561B2, “Peptide for treating inflammatory diseases” (priority 2015, dated 2020)
# Key:
# [1] = system: IL-23; assay: IL-23 secretion in LPS+IFN-γ stimulated THP-1; type: cell-based, Human; details: THP-1 + LPS + IFN-γ, 24 h
# Protocol: Cell lines: Human monocytic cell line (THP-1); test item: IS181: treatment regimen; single addition—24 hours; concentration range: 10 μg/ml-5000 μg/ml. A) Identification of non-cytotoxic concentrations: THP-1 cells were treated with IS181 for 24 hours; effect on cell viability was assessed by MTT assay; concentrations leading to >75% cell viability were selected for IL-23 assay. […] Positive control: curcumin. […] Since supernatants corresponding to 5 concentrations were to be tested for […], we also tested 1 mg/ml.
# [2] = system: IL-17; assay: IL-17 secretion in ConA stimulated splenocytes; type: cell-based, mouse; set-up: inhibition of IL-17 secretion as compared to Control (ConA) levels: dose or concentration left out as unconfirmed; details: for % Inhibition of IL-17 wrt Control (ConA) / Conc. of IL-17: splenocytes + ConA, 24 h
# Protocol: Cell lines: mouse splenocytes; test item: IS181; treatment regimen: single addition—24 hours; concentration range: 10 μg/ml-5000 μg/ml.A) Identification of non-cytotoxic concentrations: splenocytes were treated with IS181 for 24 hours. Effect on cell viability was assessed by MTT assay. Concentrations leading to >75% cell viability were selected for IL-17 assay. B) IL-17 assay: splenocytes were treated with IS181 in presence of ConA stimulation for 24 hours. Supernatants were collected and stored at −20° C. till analysed. Levels of IL-17 were analysed in supernatants by ELISA. Percent inhibition of IL-17 secretion was calculated with reference to ConA treated levels. Positive control: curcumin.
# [3] = system: Human endothelial cells (EA.hy 926); assay: Inhibition of FBS stimulated endothelial cell proliferation (MTT); type: cell-based; details: for Absorbance (Mean ± SD) at 540 nm: EA.hy926, 10% FBS, 72 h
# Protocol: Cell line: Human endothelial cells (EA.hy 926); test item: IS 181: treatment regimen: multiple additions (3)-72 hours; concentration range: 1 6 g/ml to 5000 6 g/ml (triplicate wells); sera condition: medium containing 10% FBS. […] The cells were then subjected to complete serum starvation. The cells were retreated with 10% FBS to stimulate cellular proliferation. […] Inhibition of FBS stimulated cell proliferation was measured using MTT assay. End point: percentage inhibition of FBS stimulated cell proliferation. Positive controls: anthralin; paclitaxel.
# [4] = system: Human endothelial cells (EA.hy 926); assay: DNA fragmentation in endothelial cells; type: cell-based; details: for % induction of DNA fragmentation: EA.hy926, 48 h
# Protocol: Cell lines: Human endothelial cells (EA.Hy 926); test item: IS 181; treatment regimen: multiple additions (2)—48 hours; concentration range: 100 μg/ml to 5000 μg/ml (Duplicate wells); sera condition: medium containing 1% FBS. […] Cells were lysed and fragmented DNA was precipitated using PEG/NaCl solution. The fragmented DNA was incubated with 0.2 μg/ml of Hoechst 33258 dye and fluorescence was read at 360 ex/460 em. End point: Percentage induction of DNA fragmentation with respect to untreated. Positive control: anthralin. IS 181 led to induction of DNA fragmentation in Ea.hy.926 cells at all the concentrations tested. […] The overall effect of IS 181 on induction of DNA fragmentation with respect to untreated in Ea.hy.926 cells ranged from 15.09% to 64.15% (FIGS. 10A-10B and Table-10).
# [5] = system: IL-1-β; assay: LPS stimulated IL-1-β secretion in RAW264.7; type: cell-based, Mouse; details: for IL-1-β % decrease with respect to LPS / IL-1-β Conc: RAW264.7 + LPS, 24 h
# Protocol: Effect on pro-inflammatory cytokines against LPS stimulation: TNF-α; IL-6; IL-1-β: Cell lines: Murine macrophage cell line (RAW264.7); test item: IS181; experimental steps: pretreatment of cells with TI for 2 hours; stimulation with LPS (100 ng/ml) for 24 hours; supernatant collection for cytokine analysis; concentration range: o.1 μg/ml-500 μg/ml (duplicate wells); Cytokines: TNF-α; IL-6; IL-1-β; Method of estimating cytokines: ELISA; positive control: dexamethasone.
# Cell line: RAW264.7 (Mouse macrophages); TI treatment regimen: Pretreatment for 2 h; TI Concentration range: 0.1 μg/ml-500 μg/ml (duplicate wells); LPS stimulation: 100 ng/ml; Time point for supernatants collection: 24 h; Method of estimation: ELISA; Positive control: Dexamethasone
# [6] = In vitro combination Anthralin and IS 181 (MTT); type: cell-based, Human; details: human, HaCaT keratinocytes, read-out: percent inhibition of cell viability/cytotoxicity
# Protocol: (§1) Percentage cytotoxicity was determined using MTT assay.
# [7] = system: Human Keratinocytes (HaCaT); assay: In vitro combination Anthralin and IS 181 (MTT); type: cell-based; details: 72 h
# Protocol: as §1
substance,measurement,setting,value
"H-WVQRVVEKFLK-OH [IS181, H-Trp-Val-Gln-Arg-Val-Val-Glu-Lys-Phe-Leu-Lys-OH]",% Inhibition of IL-23 wrt Control (LPS + IFN-γ),[1]; 10 μg/ml,69.8%
same,Conc. of IL-23,[1]; 10 μg/ml,25.4 pg/mL
same,% Inhibition of IL-23 wrt Control (LPS + IFN-γ),[1]; 50 μg/ml,66.3%
same,Conc. of IL-23,[1]; 50 μg/ml,25.3 pg/mL
same,% Inhibition of IL-23 wrt Control (LPS + IFN-γ),[1]; 100 μg/ml,72.3%
same,Conc. of IL-23,[1]; 100 μg/ml,23.3 pg/mL
same,% Inhibition of IL-23 wrt Control (LPS + IFN-γ),[1]; 500 μg/ml,−10.9%
same,Conc. of IL-23,[1]; 500 μg/ml,93.3 pg/mL
same,% Inhibition of IL-23 wrt Control (LPS + IFN-γ),[1]; 1000 μg/ml,39.6%
same,Conc. of IL-23,[1]; 1000 μg/ml,50.6 pg/mL
same,inhibition of IL-17 secretion as compared to Control (ConA) levels,[2]; splenocytes,48.2%-71.4%
same,% Inhibition of IL-17 wrt Control (ConA),[2]; 10 μg/ml,71.4%
same,Conc. of IL-17,[2]; 10 μg/ml,13.3 pg/mL
same,% Inhibition of IL-17 wrt Control (ConA),[2]; 50 μg/ml,59.5%
same,Conc. of IL-17,[2]; 50 μg/ml,18.8 pg/mL
same,% Inhibition of IL-17 wrt Control (ConA),[2]; 100 μg/ml,62.1%
same,Conc. of IL-17,[2]; 100 μg/ml,17.6 pg/mL
same,% Inhibition of IL-17 wrt Control (ConA),[2]; 500 μg/ml,48.2%
same,Conc. of IL-17,[2]; 500 μg/ml,24.1 pg/mL
same,% Inhibition of IL-17 wrt Control (ConA),[2]; 1000 μg/ml,58.8%
same,Conc. of IL-17,[2]; 1000 μg/ml,19.2 pg/mL
same,inhibition of FBS stimulated cell proliferation,"[3]; EA.hy926, 5 μg/ml to 1000 μg/ml",significant inhibition
same,cytotoxic effects,"[3]; EA.hy926, 2000 μg/ml to 5000 μg/ml",cytotoxic effects
same,Absorbance (Mean ± SD) at 540 nm,[3]; 1 μg/ml,0.48 ± 0.006
same,Absorbance (Mean ± SD) at 540 nm,[3]; 5 μg/ml,0.45 ± 0.027
same,Absorbance (Mean ± SD) at 540 nm,[3]; 10 μg/ml,0.46 ± 0.012
same,Absorbance (Mean ± SD) at 540 nm,[3]; 50 μg/ml,0.41 ± 0.011
same,Absorbance (Mean ± SD) at 540 nm,[3]; 100 μg/ml,0.41 ± 0.012
same,Absorbance (Mean ± SD) at 540 nm,[3]; 500 μg/ml,0.33 ± 0.004
same,Absorbance (Mean ± SD) at 540 nm,[3]; 1000 μg/ml,0.22 ± 0.008
same,Absorbance (Mean ± SD) at 540 nm,[3]; 2000 μg/ml,0.09 ± 0.0003
same,% induction of DNA fragmentation,[4]; 100 μg/ml,15.09%
same,% induction of DNA fragmentation,[4]; 500 μg/ml,22.64%
same,% induction of DNA fragmentation,[4]; 1000 μg/ml,64.15%
same,% induction of DNA fragmentation,[4]; 2000 μg/ml,56.60%
same,% induction of DNA fragmentation,[4]; 5000 μg/ml,22.64%
same,overall effect on induction of DNA fragmentation with respect to untreated,"[4]; Ea.hy.926, 48 h, 100 μg/ml to 5000 μg/ml",15.09% to 64.15%
same,IL-1-β inhibition as compared to LPS stimulated levels,[5]; RAW264.7,good extent of IL-1-β inhibition
same,IL-1-β % decrease with respect to LPS,[5]; 0.1 μ/ml,90.0%
same,IL-1-β Conc,[5]; 0.1 μ/ml,2.2 pg/mL
same,IL-1-β % decrease with respect to LPS,[5]; 1 μ/ml,30.3%
same,IL-1-β Conc,[5]; 1 μ/ml,15.4 pg/mL
same,IL-1-β % decrease with respect to LPS,[5]; 5 μ/ml,53.7%
same,IL-1-β Conc,[5]; 5 μ/ml,10.2 pg/mL
same,IL-1-β % decrease with respect to LPS,[5]; 10 μ/ml,71.9%
same,IL-1-β Conc,[5]; 10 μ/ml,6.2 pg/mL
same,IL-1-β % decrease with respect to LPS,[5]; 100 μ/ml,42.4%
same,IL-1-β Conc,[5]; 100 μ/ml,12.7 pg/mL
same,IL-1-β % decrease with respect to LPS,[5]; 500 μ/ml,72.6%
same,IL-1-β Conc,[5]; 500 μ/ml,6.1 pg/mL
same,decrease in IL-1-β level,"[5]; RAW264.7, 0.1 μg/ml-500 μg/ml",30.3%-90%
same,"cytotoxicity at 72 h, 10 μg/ml",[6]; IS 181 10 μg/ml alone,-10.4%
same,"cytotoxicity at 72 h, 50 μg/ml",[6]; IS 181 50 μg/ml alone,-4.81%
same,"cytotoxicity at 72 h, 100 μg/ml",[6]; IS 181 100 μg/ml alone,8.16%
same,"cytotoxicity at 72 h, 500 μg/ml",[6]; IS 181 500 μg/ml alone,39.4%
same,"cytotoxicity at 72 h, 1000 μg/ml",[6]; IS 181 1000 μg/ml alone,62.4%
same,"cytotoxicity at 72 h, 2000 μg/ml",[6]; IS 181 2000 μg/ml alone,81.4%
same,"cytotoxicity at 72 h, 5000 μg/ml",[6]; IS 181 5000 μg/ml alone,94.2%
same,IC50 value of IS 181,[7]; Anthralin 0 μM,695.50 µg/mL
same,IC50 value of IS 181,[7]; with Anthralin 0.01 μM,872.80 µg/mL
same,IC50 value of IS 181,[7]; with Anthralin 0.05 μM,908.50 µg/mL
same,IC50 value of IS 181,[7]; with Anthralin 0.1 μM,677.60 µg/mL
